Assay results reported in PMC12186255, “Discovery and Characterization of Small Molecule Inhibitors Targeting Exonuclease 1 for Homologous Recombination-Deficient Cancer Therapy” (ACS Chemical Biology, 2025).
“Also recorded” adds a separate entry of the source.

Key:
MDA-MB-436 cells = assay: γ-H2AX immunofluorescence and Western blot (DSB burden); type: cell-based, human; details: MDA-MB-436 parental (BRCA1-deficient) cells, 10 or 50 μM, overnight/24 h
Procedure: (b) Quantification of the relative γ-H2AX per nucleus from panel a. […] The intensity of the γ-H2AX bands correlates with the level of DSBs observed in the immunofluorescence images in panel a. […] Strong γ-H2AX foci are observed, indicating an increased burden of DSBs. […] (e) Quantification of the relative γ-H2AX per nucleus is depicted in panel d. […] The intensity of the γ-H2AX bands correlates with the level of DSBs observed in the immunofluorescence images in panel d.
Cells were seeded at a density of 3× 10^5 cells per well in 12-well plates with preplaced coverslips and treated with or without various inhibitor treatments overnight. Cells were then incubated with EdU for 30 min before collection. For PARylation analysis, cells were permeabilized with 0.1% Triton X100, fixed with 4% paraformaldehyde, blocked with the Image-iT FX signal enhancer (Invitrogen), and incubated (1.5 h, RT) with the indicated primary antibodies (PAR/pADPr Antibody; Biotechne). […] The slides were then washed with the PBS buffer, counterstained with DAPI, and analyzed with a fluorescence microscope (Zeiss Observer Z1). […] The slides were then washed with the PBS buffer, incubated with the Click-iT reaction mix for EdU as aforementioned, counterstained with DAPI, and analyzed with a fluorescence microscope (Zeiss Observer Z1).

MDA-MB-468 = assay: Cell line drug profiling, CellTiter Glo; type: cell-based, human; details: Homo sapiens, MDA-MB-468, 72 h
Procedure: We tested the cytotoxicity of representative compounds from the seven EXO1i scaffolds against a subset of the NCI-60 cell line panel along with three additional pancreatic cell lines (FG, AsPC1, and CaPan2). In general, cells were seeded in 384-well tissue culture-treated plates overnight and treated with various concentrations of each hit compound (a serial 3-fold dilution from 50 μM for all tested hits). Each concentration was performed in duplicate. Cell viability was then measured by CellTiter Glo (Promega) after 72 h of treatment.

EXO1 K85A = target: T1, EXO1 K85A (Homo sapiens, UniProt Q9UQ84, K85A); assay: In vitro exonuclease activity of mutant with inhibitors; type: biochemical; details: EXO1 25 nM, DNA substrate 250 nM; C200 0-5 μM, F684 10-40 μM
T1 construct: The N-terminal domain of human EXO1 (hEXO1) (residues 1–345) was cloned into the pET28b vector; made in house; host or cells: E. coli BL21(DE3) and Rosetta 2(DE3)
T1 sequence (Q9UQ84 1-345 K85A): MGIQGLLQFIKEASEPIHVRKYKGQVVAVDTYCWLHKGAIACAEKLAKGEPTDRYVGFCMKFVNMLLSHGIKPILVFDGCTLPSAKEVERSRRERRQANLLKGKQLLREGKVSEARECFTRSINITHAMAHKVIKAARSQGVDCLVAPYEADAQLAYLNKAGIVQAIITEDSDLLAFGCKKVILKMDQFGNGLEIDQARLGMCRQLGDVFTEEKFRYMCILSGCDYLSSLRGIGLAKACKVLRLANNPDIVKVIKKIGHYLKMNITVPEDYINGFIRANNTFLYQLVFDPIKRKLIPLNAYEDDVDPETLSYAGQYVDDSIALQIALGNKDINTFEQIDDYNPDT
Procedure: (§1) Simultaneously, we tested the effect of each point mutation on the in vitro exonuclease activity. Most mutations in site 1 result in some loss of enzymatic activity compared to WT EXO1 (Figure S13; WT:Figure S13a), particularly K85A and D225A (Figure S13b,f). […] However, at concentrations of 20 and 40 μM, the mutants (K85A and R92A) behaved more like WT (Figure b).
(§2) In both panels a and b, DMSO without inhibitors was used as a control, and its relative binding activity was set equal to 1.0. The EXO1 enzyme concentration was 25 nM, and the DNA substrate concentration was 250 nM. The values shown are the mean ± S.D. of three independent experiments.
(§3) The N-terminal domain of human EXO1 (hEXO1) (residues 1–345) was cloned into the pET28b vector. The following mutations were introduced via site-directed mutagenesis based on the findings of molecular docking analysis: K85A, E89A, R92A, I125A, D225A, K292A, and K294A (oligonucleotide primers listed in Table S1) following the established protocol.

EXO1 R92A = target: T2, EXO1 R92A (Homo sapiens, UniProt Q9UQ84, R92A); assay: as above; type: biochemical; details: EXO1 25 nM, DNA substrate 250 nM; C200 0-5 μM, F684 10-40 μM
T2 construct: The N-terminal domain of human EXO1 (hEXO1) (residues 1–345) was cloned into the pET28b vector; made in house; host or cells: E. coli BL21(DE3) and Rosetta 2(DE3)
T2 sequence (Q9UQ84 1-345 R92A): as the sequence (Q9UQ84 1-345 K85A) above, with A85K, R92A counted along it
Procedure: as §1, §2, §3

EXO1 = target: T3, EXO1 (Homo sapiens, UniProt Q9UQ84); assay: Inhibitor kinetics by FRET-based EXO1 assay (Michaelis-Menten, Lineweaver-Burk); type: biochemical; details: for V max: Michaelis–Menten plot; for mechanism of EXO1 inhibition: from Michaelis–Menten and Lineweaver–Burk plots
T3 construct: made in house
T3 sequence (Q9UQ84 1-846): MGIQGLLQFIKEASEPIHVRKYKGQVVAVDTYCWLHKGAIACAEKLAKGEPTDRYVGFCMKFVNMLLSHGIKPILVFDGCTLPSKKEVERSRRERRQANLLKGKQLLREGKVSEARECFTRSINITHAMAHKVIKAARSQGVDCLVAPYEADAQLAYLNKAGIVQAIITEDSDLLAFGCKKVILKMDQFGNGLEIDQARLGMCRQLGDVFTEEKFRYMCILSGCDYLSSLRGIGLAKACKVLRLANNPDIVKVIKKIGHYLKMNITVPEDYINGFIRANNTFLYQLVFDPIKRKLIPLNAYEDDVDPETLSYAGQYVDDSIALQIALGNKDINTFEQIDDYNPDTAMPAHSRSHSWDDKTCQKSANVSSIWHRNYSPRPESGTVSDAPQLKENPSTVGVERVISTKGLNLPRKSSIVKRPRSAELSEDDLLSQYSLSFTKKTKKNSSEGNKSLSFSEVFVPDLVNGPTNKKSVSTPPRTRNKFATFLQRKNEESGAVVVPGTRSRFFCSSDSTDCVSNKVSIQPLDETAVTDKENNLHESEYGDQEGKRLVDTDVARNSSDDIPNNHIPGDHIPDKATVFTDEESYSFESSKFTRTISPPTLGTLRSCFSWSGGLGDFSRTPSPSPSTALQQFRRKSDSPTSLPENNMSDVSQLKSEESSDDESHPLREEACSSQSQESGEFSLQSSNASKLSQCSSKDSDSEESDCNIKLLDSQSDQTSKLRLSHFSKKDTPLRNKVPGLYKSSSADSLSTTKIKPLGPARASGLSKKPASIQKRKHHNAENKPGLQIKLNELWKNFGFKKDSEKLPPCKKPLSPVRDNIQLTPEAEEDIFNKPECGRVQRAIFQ
From the text: We then calculated the initial velocity of enzyme activity by calculating the rate within the linear region of the time-dependent RFU.
The initial velocity of enzyme activity was obtained by calculating the rate of the linear region of the time-dependent RFU.

U2OS cells = assay: Homologous recombination assay (HR-GFP reporter); type: cell-based, human; details: I-SceI, 0, 10, 50, 100 μM, 48 h
Procedure: Following viral infection, the culture medium was replaced with a fresh medium containing small molecule inhibitors. […] Subsequently, cells were harvested, and GFP-positive frequencies indicative of HR repair events were quantified using a CyAn ADP Analyzer (Beckman Coulter, Inc.). Experiments were performed in triplicate, and data are presented as mean ± standard deviation (S.D.).

SMILES: COC(=O)c1nc(-c2ccc(OC)cc2)nc(O)c1O [C200]
- γ-H2AX levels (unresolved DSBs) (MDA-MB-436 cells): no effect
- IC50 (MDA-MB-468): > 50 µM
- inhibitory activity against EXO1 K85A mutant vs WT (EXO1 K85A): did not have a significant
- inhibitory activity against EXO1 R92A mutant vs WT (EXO1 R92A): partially lost its inhibitory effect; also recorded: abolished
- V max (EXO1; 2 μM C200): 415.5 min^–1
- mechanism of EXO1 inhibition (EXO1): uncompetitive mechanism
- IC50 (EXO1; kinetic assays, read-out: IC50 of each compound, used as fixed inhibitor concentration): 2 µM
- HR frequency (GFP-positive cells) (U2OS cells): no significant changes

SMILES: Cc1cccc(N2CCN(c3ccc(NS(=O)(=O)c4ccccc4)c(C(=O)O)c3)CC2)c1C [F684]
- γ-H2AX levels (unresolved DSBs) (MDA-MB-436 cells): significant increase
- IC50 (MDA-MB-468): 23.6 µM
- inhibitory activity against EXO1 K85A mutant vs WT (EXO1 K85A): partially lost its inhibitory effects; also recorded: abolished
- inhibitory activity against EXO1 R92A mutant vs WT (EXO1 R92A): partially lost its inhibitory effects; also recorded: abolished
- V max (EXO1; […] μM F684): 114.1 min^–1
- mechanism of EXO1 inhibition (EXO1): uncompetitive mechanism
- HR frequency (GFP-positive cells) (U2OS cells): inhibition of HR that increased with dose
